Measurements: US20240315966A1, “COMPOSITION CONTAINING LOXOPROFEN SODIUM” (GUANGZHOU OCUSUN OPHTHALMIC BIOTECHNOLOGY CO., LTD., priority 2021, published 2024)
Read-outs that look alike come from different tables or passages of the source.

Assay: Phase I clinical trial, pharmacokinetics of loxoprofen sodium eye drops
Conditions: human, in vivo, topical or ocular; for AUC(0-t): read-out: Average AUC0-t
Method: loxoprofen sodium eye drops: eye drops of different concentrations were prepared according to Example 1; and
2. Research methods: single-center, randomized, double-blind, single and multiple administration dosage escalation designs were used to explore the safety, tolerability and pharmacokinetic characteristics of loxoprofen sodium eye drops. Single administration includes dosages of 0.025 mg (a concentration of 0.5 mg/ml), 0.05 mg (a concentration of 1 mg/ml), 0.1 mg (a concentration of 2 mg/ml), and 0.2 mg (a concentration of 4 mg/mL), with an administration method of once a day, one drop each; and multiple administration includes dosages of 0.05 mg, 0.1 mg, and 0.2 mg, with an administration method of four times a day, one drop each.

## CC(C(=O)O)c1ccc(CC2CCCC2=O)cc1 (stereo not shown) [loxoprofen]
0.05 mg, multiple administration (four times a day)
  Cmax: 2.66 ± 0.6 ng/mL
0.05 mg, multiple administration (four times a day), 0.05 mg
  AUC(0-t): 0.47 ± 0.43 ng·h/mL
0.1 mg, multiple administration (four times a day)
  Cmax: 4.22 ± 1.79 ng/mL
0.1 mg, multiple administration (four times a day), 0.1 mg
  AUC(0-t): 2.08 ± 1.56 ng·h/mL
0.1 mg, single administration
  Cmax: 3.69 ± 0.88 ng/mL
0.1 mg, single administration, 0.1 mg
  AUC(0-t): 1.71 ± 0.99 ng·h/mL
0.2 mg, multiple administration (four times a day)
  Cmax: 9.46 ± 3.73 ng/mL
0.2 mg, multiple administration (four times a day), 0.2 mg
  AUC(0-t): 8.33 ± 4.4 ng·h/mL
0.2 mg, single administration
  Cmax: 8.73 ± 5.19 ng/mL
0.2 mg, single administration, 0.2 mg
  AUC(0-t): 6.82 ± 6.3 ng·h/mL
Multiple administration (four times a day), 0.05 mg
  Tmax: 12 min
Multiple administration (four times a day), 0.1 mg
  Tmax: 12 min
Multiple administration (four times a day), 0.2 mg
  Tmax: 12 min
